The record followed here is patent publication US9895363B2, “Methods for modulating function of proliferating cell nuclear antigen (PCNA) and treating cancer with PCNA-targeting compounds” (University of Cincinnati, priority 2010, dated 2018).

Read-outs that look alike come from different tables or passages of the source.

The subject of one experiment is GFP-PCNA. As to the kind of experiment: GFP-PCNA chromatin association, fluorescence microscopy. It is filed as cell-based, Human. Conditions: PC-3 transfected with pGFP-PCNA; 4 H, 0.5 μM PCNA-I1 or 2 μM PCNA-I2; FIG. 11. The method, then: Additionally, PC-3 cells were transfected for 24 H with pGFP-PCNA. The cells were then treated for 4 H with 0.5 μM of PCNA-I1 or 2 μM of PCNA-I2. The intact GFP-PCNA expressing cells were observed under a fluorescent microscope and recorded. After treatment with a buffer with 0.5% NP-40 buffer B, the cells were examined and recorded.

The subject of a further experiment is PC-3 cells. As to the kind of experiment: Cell growth after single 24 H pre-treatment (Alamar blue). It is filed as cell-based, Human. Conditions: 0.5 μM for 24 H, washed, Alamar blue up to 144 H; FIG. 1. From the text:
The necessity of a continuous presence of PCNA-I1 for cell growth was also investigated.
(Resazurin is reduced to fluorescent resorufin, in cell work by metabolically active cells.)

Experiment [1] relates to LAPC-4 prostate cancer cells. As to the kind of experiment: Growth inhibition by MTT staining, LAPC-4. It is filed as cell-based. Conditions: LAPC4, 96 h, Human tumor cells, treated four days. Here is the method: (§1) Growth inhibitory effects of PCNA-I1 and PCNA-I2 were assessed in human cancer cell lines, mouse cancer cell lines, immortalized mouse cell lines, and human primary cell lines. Specifically, growth inhibitory effects of PCNA-I1 and PCNA-I2 were assessed using MTT staining in the following cells lines: 1) human cancer cell lines including LNCaP (androgen receptor […]), 22Rv1, DU-145, LAPC-4, and PC-3 (androgen receptor […]) prostate cancer cells; MCF-7 and T47D breast cancer cells; A375 and MDA-MB435 melanoma cells; 2) mouse cancer cell lines including TRAMP-C2RE3 prostate cancer cells, B16 and K1735 melanoma cells, UV2237 fibrosarcoma cells, and CT-26 colon cancer cells; 3) immortalized mouse lung cell lines and mouse endothelial cell lines; and 4) primary human cell lines including umbilical endothelial cells (HUVEC, PromoCell, Heidelberg, Germany), primary bone marrow mesenchymal stem cells (HuMSC, PromoCell), primary human mammary epithelial cells (HuBrEC, Lonza, Walkersville, Md.), primary human prostate epithelial cells (HuPrEC, Lonza), and primary mouse spleen lymphocytes (isolated in this laboratory), and primary mouse bone marrow stromal cells (isolated in this laboratory). […]
(§2) IC50 values were derived from growth inhibition curves. […] Inhibition of cell growth was calculated using the formula: growth inhibition (%)=(1−A570 of treated/A570 of control)×100. […]

In experiment [2] the test system is DU145 prostate cancer cells. Briefly: Growth inhibition by MTT staining, DU145. Format: cell-based. Conditions: DU-145, 96 h, Human tumor cells, treated four days. The method, then: as §1, §2
Experiment [3] deals with UV2237 fibrosarcoma cells. As to the kind of experiment: Growth inhibition by MTT staining, UV2237. It is filed as cell-based. Conditions: 96 h, Mouse, treated four days. Here is the method: as §1, §2
The subject of a further experiment is MDA-MB435 melanoma cells. As to the kind of experiment: Growth inhibition by MTT staining, MDA-MB435. It is filed as cell-based. Conditions: MDA-MB-435, 96 h, Human, treated four days. The method, then:
as §1, §2

A further experiment deals with Tumor Cells. Briefly: Growth inhibition, mean over tumor cell lines. Format: cell-based. Conditions: mean over all tumor cell lines; read-out: IC50 Values, Tumor Cells, Mean ± SD. Here is the method: as §1, §2
Experiment [4] has as its system Lung Endothelial Cells (immortal) (Mu-Lu-Endo). As to the kind of experiment: Growth inhibition, mouse lung endothelial cells. Format: cell-based. Conditions: for IC50: Endothelial cell. Here is the method: Growth inhibitory effects of PCNA-I1 and PCNA-I2 were assessed in human cancer cell lines, mouse cancer cell lines, immortalized mouse cell lines, and human primary cell lines. Specifically, growth inhibitory effects of PCNA-I1 and PCNA-I2 were assessed using MTT staining in the following cells lines: 1) human cancer cell lines including LNCaP (androgen receptor […]), 22Rv1, DU-145, LAPC-4, and PC-3 (androgen receptor […]) prostate cancer cells; MCF-7 and T47D breast cancer cells; A375 and MDA-MB435 melanoma cells; 2) mouse cancer cell lines including TRAMP-C2RE3 prostate cancer cells, B16 and K1735 melanoma cells, UV2237 fibrosarcoma cells, and CT-26 colon cancer cells; 3) immortalized mouse lung cell lines and mouse endothelial cell lines; and 4) primary human cell lines including umbilical endothelial cells (HUVEC, PromoCell, Heidelberg, Germany), primary bone marrow mesenchymal stem cells (HuMSC, PromoCell), primary human mammary epithelial cells (HuBrEC, Lonza, Walkersville, Md.), primary human prostate epithelial cells (HuPrEC, Lonza), and primary mouse spleen lymphocytes (isolated in this laboratory), and primary mouse bone marrow stromal cells (isolated in this laboratory). PCNA-I1 and PCNA-I2 were either provided by the University of Cincinnati Drug Discovery Center (UC-DDC, Cincinnati, Ohio) or were purchased from Chembridge Co (San Diego, Calif.), ChemDiv (San Diego, Calif.), and/or Sigma-Aldrich (St Louis, Mo.).
Growth inhibitory effects of the compounds were assessed by MTT staining as described previously by Dong et al. in In Vitro Model for Intrinsic Drug Resistance: Effects of Protein Kinase C Activators on the Chemosensitivity of Cultured Human Colon Cancer Cells; Mol. Pharmacol. 1991; 39: 563-9. […]
IC50 values were derived from growth inhibition curves. […] Inhibition of cell growth was calculated using the formula: growth inhibition (%)=(1−A570 of treated/A570 of control)×100. […] The fluorescence intensity was measured at 530/580 (excitation/emission) in the FLUOstar Omega microplate reader (BMG LABTECH, Cary, N.C.). […]

Experiment [5] deals with TRAMP-C2RE3 prostate cancer cells. As to the kind of experiment: Growth inhibition by MTT staining, TRAMP-C2RE3. It is filed as cell-based. Conditions: 96 h, Mouse, Prostate tumor cells, treated four days. Here is the method:
as §1, §2

The subject of experiment [6] is 22Rv1 prostate cancer cells. As to the kind of experiment: Growth inhibition by MTT staining, 22Rv1. Format: cell-based. Conditions: 22Rv1, 96 h, Human tumor cells, treated four days. The method, then: as §1, §2
For experiment [7], the system named is primary bone marrow mesenchymal stem cells (MSC). Briefly: Growth inhibition, bone marrow mesenchymal stem cells. Format: cell-based, Human. Here is the method: as §1, §2
In experiment [8] the test system is primary human prostate epithelial cells. Briefly: Growth inhibition, prostate epithelial cells. It is filed as cell-based. Conditions: Epithelial cell, normal cells. Here is the method: as §1, §2

On to `Cc1ccsc1C(=O)N/N=C/c1ccc2ccccc2c1O` [PCNA-I1], for which the “Level of chromatin-associated GFP-PCNA” value in the experiment with GFP-PCNA is “reduced the level of chromatin-associated GFP-PCNA”. The “Total intensity of GFP-PCNA” value with GFP-PCNA is listed as “did not significantly alter the total intensity of GFP-PCNA”. In the experiment on PC-3 cells, the “Duration of growth inhibition after single one-day pre-treatment” value is listed as “sufficient to inhibit cell growth for up to seven days”. For the same compound, the IC50 (as a rule, the concentration at which inhibition is half-maximal) in experiment [1] was 300 nM; in experiment [2] it was 160 nM; in [3], 250 nM; in the experiment with MDA-MB435 melanoma cells, 290 nM; with Tumor Cells, 190 ± 90 nM; in experiment [4] (Mouse, Blood Vessel, normal cells, read-out: IC50 Values, Lung Endothelial Cells (immortal)), 1160 nM. The IC50 in [4] (Mus musculus, FIG. 2(C), read-out: IC50, Mu-Lu-Endo) worked out at 1160 nM; in experiment [5], 200 nM; in [6] it was 180 nM; in experiment [7] (Homo sapiens, FIG. 2(C), read-out: IC50, MSC) it was 989 nM; in [7] (Human, Bone Marrow, normal cells, read-out: IC50 Values, Mesenchymal Stem Cells) it was 990 nM; in experiment [8], 2000 nM. Moreover, the “Growth stimulation, Mu-Lu-Endo” value in [4] (FIG. 2(C)) is listed as “Moderate growth stimulation”.
